Measured values: ChEMBL document CHEMBL1121531, “Steroidal alpha-methylene delta-lactones as potential antitumor agents” (J Med Chem, 1980)
In brackets after ≈: the same amount, converted by molar mass.

Assays:
Type in all cases: cell-based
[1] = Dose that required to inhibit cell growth for cytotoxicity against human nasopharyngeal carcinoma (KB) cells in culture; conditions: read-out: LD50 (the source's name)
[2] = (§1) Dose that required to inhibit cell growth for cytotoxicity against HEp-2 cells in culture; conditions: human, HEp-2 cells; read-out: LD50 (the source's name)
[3] = system: HEp-2; assay: as §1; conditions: human, hep-2

SMILES	GI50 [1]	CC50 [2]	LD50 [3]
C=C1CC2C3CC[C@H]4CC(O)CCC4(C)C3CCC2(C)OC1=O (some centres undefined)	1 µg/mL (≈ 3.14 µM)		
C=C1CC2(C)C3CCC4(C)C(OC(C)=O)CCC4C3CC[C@H]2OC1=O (some centres undefined)	0.72 µg/mL (≈ 2.08 µM)		
C=C1CC2(C)C3CCC4(C)C(O)CCC4C3CC[C@H]2OC1=O (some centres undefined)	0.76 µg/mL (≈ 2.5 µM)		
C=C1CC2(CCC3(C)[C@@H](CC[C@H]4[C@@H]5CCC(=O)C5(C)CC[C@@H]43)C2)OC1=O (some centres undefined)		0.58 µg/mL (≈ 1.63 µM)	
C=C1CC2(C)C3CCC4(C)C(CCCCCCCC)CCC4C3CC[C@H]2OC1=O (some centres undefined)	0.82 µg/mL (≈ 2.05 µM)		
CC(=O)[C@H]1CC[C@H]2[C@@H]3CC[C@H]4CC(=O)CC[C@]4(C)[C@H]3CC[C@]12C		0.84 µg/mL (≈ 2.65 µM)	
C[C@]12CC[C@H]3[C@@H](CCC4=CC(=O)CC[C@@]43C)[C@@H]1CC[C@@H]2O [TESTOSTERONE]	1.27 µg/mL (≈ 4.4 µM)	0.44 µg/mL (≈ 1.53 µM)	0.58 µg/mL
